Test: xn = mol fraction of the nth substance listed
Settings: 101.3 kPa

CCCCCO + CC[n+]1ccn(C)c1.O=S(=O)([O-])C(F)(F)F
x1 = 1
Settings | speed of sound [m/s]
298.15 K | 1274.9
308.15 K | 1241.4
328.15 K | 1175.3

CC[n+]1ccn(C)c1.O=S(=O)([O-])C(F)(F)F + CCCCCO
speed of sound [m/s]
Settings | 298.15 K | 308.15 K | 318.15 K | 328.15 K
x2 = 0 | 1435.8 | 1413.5 | – | 1369.8
x2 = 0.0507 | 1431.8 | 1409.5 | – | –
x2 = 0.108 | 1423.1 | 1400.8 | 1378.7 | 1357.1
x2 = 0.1716 | – | 1387.5 | 1365.4 | –
x2 = 0.2365 | 1395.2 | – | 1350.1 | 1328.1
x2 = 0.3297 | 1373.9 | 1350.8 | 1328 | 1305.7
x2 = 0.4357 | 1348.1 | – | 1301.1 | 1278.1
x2 = 0.5702 | 1317.4 | 1292.8 | 1268.5 | 1244.5
x2 = 0.5941 | 1312 | 1287.2 | 1262.7 | 1238.5
x2 = 0.7208 | 1287.9 | 1261.6 | – | –
x2 = 0.8085 | – | 1249.1 | 1221.4 | 1194
x2 = 0.8515 | 1273.4 | 1244.7 | 1216.1 | 1187.7
x2 = 0.8998 | 1271.4 | 1241.4 | 1211.5 | 1181.9
x2 = 0.9479 | 1271.7 | 1240.2 | – | 1177.7

From a compilation of properties of binary mixtures (doi:10.1016/j.jct.2016.03.014)
